Earlier results as cited in patent publication US20200323813A1, “TREATMENT OF VIRAL HEMORRHAGIC FEVERS WITH COX-2 SELECTIVE NON-STEROIDAL ANTI-INFLAMMATORY DRUGS” (Tremeau Pharmaceuticals, Inc., priority 2019, published 2020).

Assays:
[1] = tested on: platelet aggregation or bleeding time; settings: doses up to 375 mg/day
[2] = oral once daily product
[3] = versus non-selective NSAIDs

CS(=O)(=O)c1ccc(C2=C(c3ccccc3)C(=O)OC2)cc1 [Rofecoxib, 4-[4-(methylsulfonyl)phenyl]-3-phenyl-2(5H)-furanone]
COX-2 versus COX-1 selectivity (COX-2 versus COX-1): 35 fold
effect on bleeding time [1]: not affect
effect on platelet aggregation [1]: not affect
half-live [2]: approximately 17 hours
median onset of action (acute pain settings): 45 min
sustained efficacy (duration) (single dose): 24 h
GI tolerability and safety events [3]: significant improvements
